# Test results published in patent US12241094B2, “Phenazine degrading agents and related compositions, methods and systems for interfering with viability of bacteria” (priority 2016, dated 2025).
# Like-named read-outs stand apart in the source and are kept apart here. Marks after values point to notes of the source that are not given here.
# Legend:
# [1] = Redox potential E0' (vs. NHE) of redox-active compounds; format: physicochemical; settings: measured in aqueous solution at pH 7 in this study (footnote b)
# PA14 [2] = assay: Redox cycles over 7 days and support of survival (Table 1); format: cell-based, P. aeruginosa
# PA14 [3] = assay: Reduction of redox-active compounds by PA14 (Table 1); format: cell-based, P. aeruginosa
# [4] = oxidized form, values from references a, c, d; cited from earlier work
# Pa PA14 biofilm = assay: Biofilm biomass by DAPI intensity (Example 7); format: cell-based, P. aeruginosa
# Experimental: In this example, to check for an effect of PodA or 1-OH-PHZ on biofilm development, Pa PA14 was grown in 8-well chambered microscope slides designed for biofilm imaging, as previously reported (Das et al. (2015) Sci Rep. 5:8398). Overnight cultures of Pa PA14 were diluted to a starting optical density of 0.25 and grown directly on the slides (volume of 250 μl per chamber). After 5 h incubation at 37° C., planktonic cells were rinsed from the slide and remaining cells were stained with DAPI. Biofilm biomass was quantified by DAPI intensity on a Leica confocal microscope, with LAS X software. Pa PA14 incubated in the presence of 1 μM PodA or 100 μM 1-OHPHZox had ˜50% the biofilm biomass of Pa PA14 alone (FIG. 20A).
# P. aeruginosa biofilm [5] = assay: Microcolony number and size in 5 hour biofilms on succinate minimal medium; format: cell-based; settings: 100 μM 1-OHPHZ or 0.5 μg mL-1 PodA
# Description: FIGS. 24A-C show charts and images illustrating results of exemplary experiments showing that PodA and 1-OH-PHZ inhibit the early stages of P. aeruginosa biofilm formation on succinate minimal medium. […] Numbers are averages and SD from 8 biological replicates.
# P. aeruginosa biofilm [6] = assay: Optical density of P. aeruginosa biofilm; format: cell-based; settings: PodA vs inactive E154A; 1-OH-PHZ vs 1% DMSO
# [7] = system: Pa PA14 biofilm transcriptome; assay: RNASeq transcriptome of biofilm cultures; format: cell-based, P. aeruginosa; settings: 5 h
# Experimental: Because 1-OH-PHZ induces iron starvation in A. fumigatus (Briard et al. (2015) Scientific Reports. 2015; 5), it was speculated that the abrogation of biofilm development in P. aeruginosa grown in the presence of either PodA or 1-OH-PHZox may be mediated by a response to Fe-limitation. To test this idea, changes to the transcriptome of Pa PA14 by RNASeq were assessed. After 5 h of incubation in the presence of PodA (1 μM), 1-OH-PHZ (200 μM) or PYO (200 μM), RNA was prepared from 1 ml of biofilm cultures (250 μl pooled from 4 static biofilm chambers) for analysis on an Illumina HiSeq 2500 sequencer at the Millard and Muriel Jacobs Genetics and Genomics Laboratory, as previously described (Babin et al. (2016) Proc Natl Acad Sci USA. 113(5):E597-E605; Kreamer et al. (2015) M Bio. 2015; 6(2):e02549. Epub 2015/02/26). This experiment was designed to identify genes that were likely to be specifically affected by PodA's transformation of PYO to 1-OH-PHZ under a condition that inhibited biofilm formation (FIG. 20A). As a reference for genes responsive to iron availability, these transcriptomes were compared to those previously found to respond to Fe(II) shock (Kreamer et al. (2015) M Bio. 2015; 6(2):e02549. Epub 2015/02/26).
# [8] = system: P. aeruginosa planktonic culture; assay: Phenazines in planktonic P. aeruginosa cultures (HPLC); format: cell-based; settings: 24 hours
# Description: Product was cut with DpnI to remove WT vector, phosphorylated with T4 polynucleotide kinase, and ligated to generate a circular mutant protein expression construct. For D72N and Y156F mutants, DNA fragments encoding the mutation were synthesized (Integrated DNA Technologies) and cloned into pET-20b(+) as for the wild type sequence. Enzymes for cloning were purchased from New England Biolabs. Constructs were transferred to E. coli BL21(DE3) for expression. All mutations were confirmed by Sanger sequencing (Laragen and Retrogen). When necessary, 100 μg mL^−1 carbenicillin was included in all growth media to maintain selection for the plasmid. To measure the effect of PodA30-162 on phenazine production in planktonically grown P. aeruginosa, cultures were grown overnight in 5 mL volumes of tryptic soy broth (TSB) or succinate minimal medium (arginine medium recipe from Glasser et al., 2014 with 40 mM sodium succinate in place of arginine) (3) in the presence 1 μg mL^−1 PodA30-162. Cells were removed by centrifugation and supernatants were analyzed by HPLC as previously described (9). See below for a description of biofilm growth of P. aeruginosa PA14. To induce protein expression, an overnight culture was inoculated 1/1000 in Terrific Broth (BD Difco). Cultures were grown in baffled Erlenmeyer flasks (1 L culture per 3 L flask) at 37° C. with 150 rpm agitation in a shaking incubator (Innova 44 shaking incubator, New Brunswick). After 3-4 hours, the temperature was changed to 16° C. and cultures were induced with 50 μM (final concentration) IPTG and left to incubate overnight. Cells were then pelleted by centrifugation, flash frozen in liquid N2, and stored at −80° C. for up to 1 month before protein purification.
# [9] = Kidani 1958; cited from earlier work
# [10] = PYO's hydroxyl group; cited from earlier work
# E. coli DH5α = settings: 100 μM PYO vs absence of PYO; cited from earlier work
# S. oneidensis MR1 = settings: 100 μM PYO vs absence of PYO; cited from earlier work
# S. aureus MN8 = settings: 100 μM PYO vs absence of PYO; cited from earlier work
# P. aeruginosa Δphz = settings: 25 μM PYO; images from Ramos et al., 2010; cited from earlier work
# Pa PA14 biofilms = assay: Tobramycin tolerance of Pa PA14 biofilms; format: cell-based, P. aeruginosa
# Experimental: In varying the amount of added 1-OH-PHZox, it was observed a dose-dependent response: the greater the [1-OHPHZox], the greater the biofilm inhibition, yet, under these conditions, saturating at 200 μM (FIG. 20B). To set the stage for flow-cell experiments to explore PodA and 1-OH-PHZ effects on biofilm inhibition and biofilm dissolution, the time course for biofilm development was mapped for Pa PA14 constitutively expressing YFP under constant flow in a minimal medium (FIG. 20C) as previously described (Wang et al. (2011) J Bacteriol. 193(14):3606-17). In addition, an appropriate initial tobramycin concentration to use in Pa PA14 biofilm experiments was also identified to test the hypothesis that PodA or 1-OH-PHZ can sensitize biofilms to antibiotics: Pa PA14 biofilms tolerate 20 μg/ml, 10× the MIC for tobramycin for planktonic cultures, similar to what has been reported for biofilms of Pa PAO1 (Bjarnsholt et al. (2005) Microbiol-Sgm. 2005; 151:373-83).
compound,measurement,setting,value
"CN(C)c1ccc2nc3ccc(=[N+](C)C)cc-3sc2c1 [Methylene blue (MB), Methylene blue]","E^0, (vs. NHE)",[1],0 mV
same,# of Redox cycles over 7 days,PA14 [2],3
same,Support survival?,PA14 [2],No
same,Reduction by PA14?,PA14 [3],Yes
same,"E^0, (vs. NHE)",[4],+11 mV
"Oc1cccc2nc3ccccc3nc12 [1-OH-PHZ, 1-Hydroxyphenazine]",# of Redox cycles over 7 days,PA14 [2],14
same,Support survival?,PA14 [2],Yes
same,Reduction by PA14?,PA14 [3],Yes
same,biofilm biomass relative to Pa PA14 alone,"Pa PA14 biofilm; 1 μM PodA or 100 μM 1-OHPHZox, 5 h at 37° C",~50%
same,biofilm formation compared to untreated control,"Pa PA14 biofilm; PodA 1 μM, 1-OH-PHZ 100 μM, total DAPI staining",inhibit biofilm formation
same,concentration at which biofilm inhibition saturates,Pa PA14 biofilm; dose-dependent response,200 µM
same,microcolony diameter,P. aeruginosa biofilm [5],does decrease
same,number of microcolonies formed,P. aeruginosa biofilm [5]; vs inactive E154A,does not significantly affect
same,optical density of biofilm,P. aeruginosa biofilm [6],not significantly different
same,upregulation of genes in iron responsive pathways,[7]; 200 μM,2-10 fold
same,expression of small gene cluster incl. QapR regulon,[7],upregulated modestly
same,production of PYO,[8]; minimal medium with succinate,negative impact
same,phenazine production,[8]; tryptic soy broth,changes to the concentrations of all four phenazines
same,"E^0, (vs. NHE)",[4],−174^a mV
same,log of the equilibrium constant βmlh of binding copper,[9],8.68
"Cn1c2cccc(=O)c-2nc2ccccc21 [PYO, Pyocyanin]",# of Redox cycles over 7 days,PA14 [2],31
same,Support survival?,PA14 [2],Yes
same,Reduction by PA14?,PA14 [3],Yes
same,"log(2) changes relative to untreated control, metal scavenging and starvation response genes (FIG. 21A)","[7]; PodA 1 μM, 1-OH-PHZ 200 μM, PYO 200 μM",~0 log(2)
same,"E^0, (vs. NHE)",[4],−40^a mV
same,pKa,[10],~5
same,colony growth,E. coli DH5α,decreased colony growth
same,colony growth,S. oneidensis MR1,decreased colony growth
same,colony growth,S. aureus MN8,decreased colony growth
same,biofilm production of Δphz,P. aeruginosa Δphz,restored
NC[C@H]1O[C@H](O[C@H]2[C@H](O)[C@@H](O[C@H]3O[C@H](CO)[C@@H](O)[C@H](N)[C@H]3O)[C@H](N)C[C@@H]2N)[C@H](N)C[C@@H]1O [tobramycin],tobramycin concentration tolerated by biofilms,Pa PA14 biofilms,20 µg/mL
same,tolerated concentration relative to MIC for planktonic cultures,Pa PA14 biofilms,10 × the MIC
"O=C(O)Cc1cc(O)ccc1O [Homogentisic acid (HMA), Homogentisic acid]","E^0, (vs. NHE)",[1],+306^b mV
same,# of Redox cycles over 7 days,PA14 [2],No cycle
same,Support survival?,PA14 [2],No
